# Where two headings read alike, the source gives them in different places.
# How the values were obtained:
# [1] = target: T1, CAIX-expressing human HT-29 colorectal cancer cells (Homo sapiens, UniProt Q16790); assay: FACS binding assay (IC50 determination, competition with tracer 3BP-2776 or 3BP-4149)
# T1 construct: CAIX-expressing human HT-29 colorectal cancer cells; host or cells: HT-29 human colorectal cancer cells
# Outline: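 HT-29 cells in FACS buffer (PBS, 1% FCS) at 500.000 cells/ml were exposed to compounds competing with a labelled tracer, with biotinylated compounds detected by 1 μg/mL APC-streptavidin for 30 min on ice. APC/Cy5 median fluorescence was read by flow cytometry and IC50 derived by 4PL fit.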
# [2] = target: T2, human carbonic anhydrase IX (hCAIX-Fc) (Homo sapiens, UniProt Q16790); assay: Surface plasmon resonance assay with hCAIX-Fc; assay type: binding; conditions: for t1/2 category (activity): SPR dissociation half-life, hCAIX-Fc; for t1/2 category (activity) / Kd: 25° C.; for pKD category (affinity) CAIX / Kd: SPR; for pKD category (affinity) CAIX: hCAIX; for Kd: hCAIX-Fc captured, read-out: pKD category (activity) (converted)
# T2 construct: purchased SinoBliological (Sino Biological) 10107-H02H
# CAIV (hCAIV-bio) = target: T3, CAIV (hCAIV-bio) (Homo sapiens, UniProt P22748); assay: SPR selectivity assay with biotinylated CAIV; assay type: binding
# T3 construct: purchased SinoBliological (Sino Biological) 10472-1H081H
# Procedure: (§1) In order to test selectivity of CAIX-binding peptides toward CAIV (SinoBliological, Cat #10472-1H081H), CAXII (SinoBliological, Cat #10617-H08H or CAXIV (SinoBliological, Cat #10458-H08H), SPR assays were performed analog to the assay described above but with a different target capture procedure. For immobilization, the carbonic anhydrases were biotinylated and capture on the SPR chip using the Biotin CAPture Kit (cytiva) according to the manufacturer instructions using HBSTE, 0.1% as Running Buffer.
# (§2) Table 13 describes the protocol steps for biotinylated target capturing and assessment of the binding kinetics.
# CAXII (hCAXII-bio) = target: T4, CAXII (hCAXII-bio) (Homo sapiens, UniProt O43570); assay: SPR selectivity assay with biotinylated CAXII; assay type: binding
# T4 construct: purchased SinoBliological (Sino Biological) 10617-H08H
# Procedure: as §1, §2
# CAXIV (hCAXIV-bio) = target: T5, CAXIV (hCAXIV-bio) (Homo sapiens, UniProt Q9ULX7); assay: SPR selectivity assay with biotinylated CAXIV; assay type: binding
# T5 construct: purchased SinoBliological (Sino Biological) 10458-H08H
# Procedure: as §1, §2
# dog CAIX = assay: Radioligand binding assay, 111In-labeled compounds, CHO-VGT cells with dog CAIX; conditions: 111In-labeled compound, 8 h at 37°C
# Procedure: (§3) In order to assess the affinity of ^111In-labeled compounds to CAIX of different species, a radioligand binding assay was established.
# (§4) CHO-VGT cells were transfected with the human, dog, and mouse CAIX (InSCREENex GmbH) and cultured in Ham's F-12 medium (Sigma-Aldrich #N4888) supplemented with 10% fetal bovine serum (FCS), 2 mM L-glutamine, 100 U/mL Penicillin, and 0.1 mg/mL streptomycin. Cells were detached with Accutase (Biolegend #423201) and counted using a particle counter (CASY Model TT; Scharfe Systems, Germany). Cell concentrations were adjusted to 3×10^5 mL^−1, and 1.000 μL of the suspension per well were dispensed into flat-clear-bottom 24 well plates.
# (§5) Approximately 24 hours after re-seeding, the medium was aspirated and the cells were washed once with 1000 μL assay medium (Ham's medium without additives). To determine total binding, 700 μL of assay medium and 100 μL of the radioligand dilutions were added to the wells in triplicates. To determine non-specific binding, 600 μL of binding medium, 100 μL of the radioligand dilutions and 100 μL of a blocking solution containing 8 μM non-labeled compound were added to the wells in triplicates. At the end of incubation time (8 h at 37° C.), cells were washed and subsequently harvested in 300 μL RIPA buffer (Thermo Scientific #89901) containing Protease Inhibitor Cocktail Set I (Calbiochem #539131). Radioactivity of the cell lysate of each well was counted using a gamma counter (1470 Wizard, PerkinElmer, USA). An aliquot of each radioligand dilution was included in the gamma counter measurements to allow for determination of their actual concentrations via their known specific activity.
# mouse CAIX = target: T6, mouse CAIX (Mus musculus, UniProt Q8VHB5); assay: Radioligand binding assay, 111In-labeled compounds, CHO-VGT cells with mouse CAIX
# T6 construct: host or cells: CHO-VGT / CHO cells
# Procedure: as §3, §4, §5
# human CAIX = human CAIX (Homo sapiens, UniProt Q16790); assay: Radioligand binding assay, 111In-labeled compounds, CHO-VGT cells with human CAIX; parameters: host or cells: CHO-VGT / CHO cells
# Procedure: as §3, §4, §5
# [3] = Biodistribution study (SPECT/CT) in SK-RC-52 tumor-bearing mice with or without gelofusine; assay type: in vivo, NMRI nude mice; conditions: female, NMRI nude, mouse, in vivo, iv, total radioactivity
# Procedure: (§6) The effect on tumor uptake of prior injection of gelofusine for kidney protection was investigated in mice bearing the SK-RC-52 tumor. Biodistribution was evaluated using in vivo SPECT/CT imaging. Prior to the in vivo study the compounds (ligands) were initially radiolabeled with In-111 and the stability of radiolabeled compounds was evaluated in buffer at three different timepoints.
# (§7) The study was performed in female NMRI nude mice (approximately 6 weeks of age) from Janvier Labs, France, housed up to 5 mice per cage.
# (§8) The column was washed with 2 mL water, and then the final product was eluted from the column in EtOH solution (50%) • The sample was formulated in PBS to the final concentration of 150 MBq/mL and 5 nmol/mL.
# (§9) SK-RC-52 cells were cultured in RPMI 1640 with GlutaMax-I (Thermo Fisher Scientific #61870044) supplemented with 10% fetal bovine serum+1% penicillin/streptomycin, harvested, washed twice in RPMI 1640 and resuspended at 2×10^7 cells/mL in RPMI 1640. HT-29 cells were cultured in McCoy's 5a Medium Modified (Sigma #M9309). For inoculation of HT-29 cells, cells were harvested, washed twice in PBS and resuspended at 5×10^7 cells/mL in PBS. Cells were kept on ice until inoculation.
# (§10) Animals were anaesthetized (isoflurane, 2-4% in ambient air supplemented with 100% 02) prior to tumor inoculation. The tumor cells (100 μL suspension of either SK-RC-52 cells (2×10^6 cells/animal) or HT-29 cells (5×10^6 cells/animal)) were subcutaneously inoculated in the right flank using a 1-mL syringe equipped with a 27 G needle. Tumor growth and animal weight were measured twice per week. Tumor size was measured by caliper and the volume was estimated using the following formula: 0.52×(length×width^2). When tumor sizes reached 150-250 mm^3, animals were randomized into groups (n=3) of similar average tumor volume and body weight.
# (§11) Animals were injected intravenously with In-111-labeled compounds (single bolus, 22.3-31.2 MBq, ˜1 nmol ligand, injection volume: 100 μL) in the lateral tail vein using a 29 G syringe.
# (§12) CT was performed with helical scan, 300 ms exposure, reconstruction resolution of 250 μm. SPECT was performed with multi-pinhole scan and a 30 s frame time. For the quantification of the radioactivity uptake, regions of interests (ROIs) were drawn over the tumor, kidney, liver, and heart (estimate of blood) identified on the images. Uptake was expressed as percent of injected dose per gram tissue (% ID/g).
# SK-RC-52 tumor = assay: as above; assay type: in vivo, NMRI nude mice; conditions: mouse, in vivo
# Procedure: as §6, §7, §8, §9, §10, §11, §12
# [4] = Biodistribution study (SPECT/CT) in HT-29 tumor-bearing mice; assay type: in vivo, NMRI nude mice; conditions: female, NMRI nude, mouse, in vivo, iv, total radioactivity
# Procedure: as §6, §7, §8, §9, §10, §11, §12
# HT-29 tumor = assay: as above; assay type: in vivo, NMRI nude mice; conditions: mouse, in vivo
# Procedure: as §6, §7, §8, §9, §10, §11, §12
# [5] = Tumor/Blood uptake ratio at 4 h p.i.
# [6] = Tumor/Liver uptake ratio at 4 h p.i.
# T4 sequence (O43570 25-354): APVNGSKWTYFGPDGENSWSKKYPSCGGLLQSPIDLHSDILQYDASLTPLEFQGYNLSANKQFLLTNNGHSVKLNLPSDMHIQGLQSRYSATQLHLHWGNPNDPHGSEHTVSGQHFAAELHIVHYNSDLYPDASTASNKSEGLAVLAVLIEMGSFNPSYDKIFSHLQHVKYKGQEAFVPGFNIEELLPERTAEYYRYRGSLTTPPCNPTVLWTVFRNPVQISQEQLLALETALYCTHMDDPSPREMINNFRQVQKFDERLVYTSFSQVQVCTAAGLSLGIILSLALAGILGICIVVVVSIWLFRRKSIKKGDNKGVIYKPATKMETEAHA
# T5 sequence (Q9ULX7 16-337): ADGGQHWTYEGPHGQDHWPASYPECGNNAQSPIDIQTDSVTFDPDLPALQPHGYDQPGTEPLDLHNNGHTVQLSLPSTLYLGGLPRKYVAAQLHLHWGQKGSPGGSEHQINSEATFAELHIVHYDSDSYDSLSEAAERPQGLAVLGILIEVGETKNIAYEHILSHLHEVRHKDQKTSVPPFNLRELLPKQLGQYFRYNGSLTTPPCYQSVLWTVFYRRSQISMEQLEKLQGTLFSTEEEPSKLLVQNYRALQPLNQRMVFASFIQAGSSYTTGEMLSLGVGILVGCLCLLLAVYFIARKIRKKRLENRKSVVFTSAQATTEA
# T3 sequence (P22748 19-284): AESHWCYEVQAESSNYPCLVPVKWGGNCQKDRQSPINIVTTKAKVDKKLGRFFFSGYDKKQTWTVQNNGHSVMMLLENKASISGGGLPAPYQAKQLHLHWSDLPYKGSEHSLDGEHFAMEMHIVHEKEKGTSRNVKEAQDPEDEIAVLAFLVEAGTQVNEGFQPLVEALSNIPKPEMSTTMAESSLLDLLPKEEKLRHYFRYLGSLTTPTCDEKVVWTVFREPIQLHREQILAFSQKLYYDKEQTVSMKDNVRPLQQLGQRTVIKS
# T6 sequence (Q8VHB5 32-437): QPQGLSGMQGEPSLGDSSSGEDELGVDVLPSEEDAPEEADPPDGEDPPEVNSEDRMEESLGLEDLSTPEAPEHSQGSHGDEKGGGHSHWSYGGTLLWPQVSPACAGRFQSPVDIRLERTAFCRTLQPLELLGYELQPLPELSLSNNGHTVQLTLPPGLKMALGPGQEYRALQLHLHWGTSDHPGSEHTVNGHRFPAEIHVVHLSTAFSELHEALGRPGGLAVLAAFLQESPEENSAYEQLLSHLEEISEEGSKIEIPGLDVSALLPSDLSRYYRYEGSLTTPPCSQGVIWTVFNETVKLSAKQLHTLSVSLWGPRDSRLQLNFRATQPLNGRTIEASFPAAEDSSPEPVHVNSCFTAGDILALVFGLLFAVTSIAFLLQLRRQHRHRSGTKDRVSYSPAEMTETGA
smiles,measurement,setting,value
"CC(C)C[C@@H]1NC(=O)[C@H](Cc2cccc(NC(=O)CCCS(N)(=O)=O)c2)NC(=O)[C@H](CC(=O)O)NC(=O)[C@H]2CCCN2C(=O)[C@H](CCC(=O)O)NC(=O)[C@@H](NC(=O)[C@H](CCC(N)=O)NC(=O)CN2CCN(C(=O)CN3CCN(CC(=O)O)CCN(CC(=O)O)CCN(CC(=O)O)CC3)CC2)CSCc2cccc(c2)CSC[C@@H](C(N)=O)NC(=O)[C@H](CO)NC(=O)[C@H](Cc2c[nH]c3ccccc23)NC(=O)[C@H]([C@@H](C)O)NC1=O [3BP-4452, DOTA-PPAc-Gln-[Cys(3MeBn)-Glu-pro-Asp-Af3(Cpsu)-Leu-Thr-Trp-Ser-Cys]-NH2]",IC50,[1],< 10 nM
same,t1/2 category (activity),[2],A (t1/2>15.0 minutes)
same,pKD category (affinity) CAIX,[2],A (pKD values >8.0)
same,Kd,[2],< 10 nM
same,Kd,CAIV (hCAIV-bio),> 1000 nM
same,Kd,CAXII (hCAXII-bio),> 1000 nM
same,Kd,CAXIV (hCAXIV-bio),> 1000 nM
same,pKD category (activity),dog CAIX,A (pKD values >8.0)
same,Kd,mouse CAIX,10 to 79.4 nM
same,Kd,human CAIX,< 10 nM
"CC(C)C[C@@H]1NC(=O)[C@H](Cc2ccc(NC(=O)CCS(N)(=O)=O)cc2)NC(=O)[C@H](CC(=O)O)NC(=O)[C@H]2CCCN2C(=O)[C@H](CCC(=O)O)NC(=O)[C@@H](NC(=O)[C@H](CCC(N)=O)NC(=O)CN2CCN(CC(=O)O)CCN(CC(=O)O)CCN(CC(=O)O)CC2)CSCc2cccc(c2)CSC[C@@H](C(N)=O)NC(=O)[C@H](CO)NC(=O)[C@H](Cc2c[nH]c3ccccc23)NC(=O)[C@H]([C@@H](C)O)NC1=O [DPI-4501, DOTA-Gln-[Cys(3MeBn)-Glu-pro-Asp-Aph(SaPr)-Leu-Thr-Trp-Ser-Cys]-NH2]",tissue uptake at 4 h,[3]; Blood uptake at 4 h p.i.,0.05 ± 0.01 %ID/g
same,tissue uptake at 4 h,[3]; Liver uptake at 4 h p.i.,0.08 ± 0.01 %ID/g
same,tissue uptake,[3]; Peak Tumor Uptake,7.17 ± 1.92 %ID/g
same,tissue to tissue ratio at 4 h,[3]; [5],128 ± 20.3
same,tissue to tissue ratio at 4 h,[3]; [6],70.2 ± 17
same,Peak Tumor Uptake,"SK-RC-52 tumor; female, NMRI nude, iv",6.01 ± 0.39 % ID/g
same,Blood uptake at 4 h p.i.,"SK-RC-52 tumor; female, NMRI nude, iv, 4 h",0.03 ± 0.003 % ID/g
same,Liver uptake at 4 h p.i.,"SK-RC-52 tumor; female, NMRI nude, iv, 4 h",0.07 ± 0.01 % ID/g
same,Tumor/Blood uptake ratio at 4 h p.i.,"SK-RC-52 tumor; female, NMRI nude, iv, 4 h",178.6 ± 39.3
same,Tumor/Liver uptake ratio at 4 h p.i.,"SK-RC-52 tumor; female, NMRI nude, iv, 4 h",81.4 ± 14.0
same,Time to peak uptake in tumor,SK-RC-52 tumor,1 h
same,tissue uptake at 4 h,[4]; Blood uptake at 4 h p.i.,0.04 ± 0.005 %ID/g
same,tissue uptake at 24 h,[4]; Kidney uptake at 24 h p.i.,2.16 ± 0.36 %ID/g
same,tissue uptake at 4 h,[4]; Liver uptake at 4 h p.i.,0.12 ± 0.01 %ID/g
same,tissue uptake,[4]; Peak Kidney uptake,5.61 ± 0.57 %ID/g
same,tissue uptake,[4]; Peak Tumor Uptake,3.81 ± 0.26 %ID/g
same,tissue to tissue ratio at 4 h,[4]; [5],104 ± 10.2
same,tissue to tissue ratio at 4 h,[4]; [6],29.8 ± 2.5
same,tissue to tissue ratio at 24 h,[4]; Tumor/kidney uptake ratio at 24 h p.i.,1.5 ± 0.1
same,Time to peak uptake in tumor,HT-29 tumor,2 h
same,% remaining tumor uptake at 24 h p.i.,HT-29 tumor; 24 h,80 ± 4.4%
"CC(C)C[C@@H]1NC(=O)[C@H](Cc2ccc(NC(=O)CCS(N)(=O)=O)cc2)NC(=O)[C@H](CC(=O)O)NC(=O)[C@H]2CCCN2C(=O)[C@H](CCC(=O)O)NC(=O)[C@@H](NC(=O)[C@H](CCC(N)=O)NC(=O)CN2CCN(CC(=O)O)CCN(CC(=O)O)CCN(CC(=O)O)CC2)CSCc2cccc(c2)CSC[C@@H](C(N)=O)NC(=O)[C@H](CO)NC(=O)[C@H](Cc2c[nH]c3ccccc23)NC(=O)[C@H]([C@@H](C)O)NC1=O [3BP-4501, DOTA-Gln-[Cys(3MeBn)-Glu-pro-Asp-Aph(SaPr)-Leu-Thr-Trp-Ser-Cys]-NH2]",IC50,"[1]; FACS binding assay, HT-29 cells, competition with tracer 3BP-2776 (10 nM, biotin-labeled), 4° C., 1 hour, read-out: pIC50 category (activity) (converted)",< 10 nM
same,t1/2 category (activity),[2],A (t1/2>15.0 minutes)
same,pKD category (affinity) CAIX,[2],A (pKD values >8.0)
same,Kd,[2],< 10 nM
same,Kd,"CAIV (hCAIV-bio); SPR, biotinylated CAIV, read-out: pKD category (affinity) CAIV (converted)",> 1000 nM
same,Kd,"CAXII (hCAXII-bio); SPR, biotinylated CAXII, read-out: pKD category (affinity) CAXII (converted)",> 1000 nM
same,Kd,"CAXIV (hCAXIV-bio); SPR, biotinylated CAXIV, read-out: pKD category (affinity) CAXIV (converted)",> 1000 nM
same,pKD category (activity),dog CAIX,A (pKD values >8.0)
same,Kd,"mouse CAIX; 111In-labeled compound, Mouse CAIX, 8 h at 37°C, read-out: pKD category (activity) (converted)",10 to 79.4 nM
same,Kd,"human CAIX; 111In-labeled compound, Human CAIX, 8 h at 37°C, read-out: pKD category (activity) (converted)",< 10 nM

# From US20250339569A1, “CARBONIC ANHYDRASE IX LIGANDS” (priority 2021, published 2025)
